Test results from patent US12622934B2, “Pharmaceutical composition for preventing or treating atopic disease containing Faecalibacterium prausnitzii strain” (ENTEROBIOME INC., priority 2020, dated 2026).
In brackets after ≈: the same amount, converted by molar mass.

Tests used:
[1] = tested on: Faecalibacterium prausnitzii EB-FPDK11; experiment: MIC by CLSI broth microdilution, isolated strain; assay type: cell-based; design: MIC: unit not given beside the values; conditions: for resistance or sensitivity of the EB-FPDK11 strain to the antibiotic: Table 5; for MIC breakpoint class: test strain EB-FPDK11, breakpoints per antibiotic in c1-c3
[2] = tested on: Faecalibacterium prausnitzii A2-165; experiment: MIC by CLSI broth microdilution, type strain; assay type: cell-based; design: MIC: unit not given beside the values; conditions: for MIC breakpoint class: test strain A2-165, breakpoints per antibiotic in c1-c3
[3] = tested on: Bacteroides thetiotaomicron ATCC 29741; experiment: MIC by CLSI broth microdilution, QC strain; assay type: cell-based; conditions: ATCC29741
Th2/Th1 cytokines = experiment: Ratio of Th2/Th1 cytokines in serum; assay type: in vivo, mice
Experimental: (§1) The Faecalibacterium prausnitzii A2-165 strain and Faecalibacterium prausnitzii EB-FPDK11 live bacteria used in this experiment were prepared at a concentration of 1×10^8 CFU/150 μl PBS (25% glycerol, 0.05% cysteine/PBS).
To observe atopic dermatitis lesions, 6-week-old NC/Nga mice (weighed about 21 to 25 g, SLC, Inc., Japan) were purchased from Daehan Biolink Co., Ltd. (Chungbuk, Korea). Animal tests were carried out in accordance with the Animal use and Care Protocol of the Institutional Animal Care and Use Committee (IACUC). The animals were acclimated for one week, and then raised for 9 weeks at a constant temperature of 22° C. and a relative humidity of 50 to 60% with a 12-hr light/12-hr dark cycle. […]
(§2) At the end of the experiment, the mice were anesthetized with CO2, and blood was collected by cardiac puncture. […] The concentrations of IL-4, IL-12, IFN-γ and IL-6 cytokines were measured using an ELISA kit (Invitrogen, CA, USA), and the results of the measurement are shown in FIGS. 16 and 17.
From an immunological point of view, allergenic atopic dermatitis is a disease caused by an excessive imbalance between Th1 and Th2 immune responses. Thus, the cytokine concentrations measured as described above were expressed as the ratio of Th2/Th1 cytokines, and the results are shown in FIGS. 18 and 19.

NC/Nga mice [4] = experiment: Scratching frequency; assay type: in vivo; conditions: scratching for 10 minutes, day before end, compared to atopic dermatitis-induced group
Experimental: as §1
(§3) To observe atopic dermatitis lesions, 6-week-old NC/Nga mice (weighed about 21 to 25 g, SLC, Inc., Japan) were purchased from Daehan Biolink Co., Ltd. (Chungbuk, Korea). Animal tests were carried out in accordance with the Animal use and Care Protocol of the Institutional Animal Care and Use Committee (IACUC). The animals were acclimated for one week, and then raised for 9 weeks at a constant temperature of 22° C. and a relative humidity of 50 to 60% with a 12-hr light/12-hr dark cycle.
(§4) The backs of 6-week-old NC/Nga mice were shaved clean, and then left to stand for 24 hours so that fine wounds of the skin were healed. 1% 2,4-dinitrochlorobenzene (DNCB) solution (Sigma-Aldrich Korea) was applied to the back of each mouse twice a week for 3 weeks to induce an immune response, and then 0.5% DNCB solution was applied twice a week to induce contact dermatitis. […]
The day before the end of the experiment, the frequency of scratching the affected area due to itching was measured. For measurement of the frequency of scratching, each mouse was acclimated for 10 minutes, and then the frequency of scratching for 10 minutes was measured using a counter.

NC/Nga mice [5] = experiment: Spleen weight; assay type: in vivo; conditions: after 6 weeks oral treatment, compared to atopic dermatitis-induced group (DNCB)
Experimental: as §1, §3
(§5) The backs of 6-week-old NC/Nga mice were shaved clean, and then left to stand for 24 hours so that fine wounds of the skin were healed. […]
Thus, the weight of the spleen was measured to observe the effect of the composition for preventing atopic dermatitis on the immune organs of NC/Nga mice with atopic dermatitis induced by DNCB. […] The collected spleen tissue was washed with physiological saline and then dried, and the weights thereof were measured using a microbalance and the sizes thereof were visually observed.

IL-6 = experiment: Serum cytokine concentration (ELISA), IL-6; assay type: in vivo, mice; conditions: mouse blood, compared to atopic dermatitis-induced group (DNCB)
Experimental: as §1, §3, §5
After induction of atopic dermatitis, the concentrations of cytokines related to Th1 and Th2 were measured to examine the immune response resulting from administration of the Faecalibacterium prausnitzii EB-FPDK11 strain of the present invention. […]
as §2

IgE = experiment: Serum IgE concentration (ELISA); assay type: in vivo, mice; conditions: end of experiment, compared to DNCB group (1545.08 ng/ml)
Experimental: as §1, §3, §4
At the end of the experiment, each of the mice was anesthetized with CO2 and blood was collected by cardiac puncture. The collected blood was centrifuged at 10,000 rpm for 5 minutes to separate the serum, and the serum IgE concentration was measured. […]

NC/Nga mice [6] = experiment: Ear edema caused by atopic dermatitis (thickness gauge); assay type: in vivo; conditions: at 6 weeks; normal group 0.55 mm, DNCB group 1.50 mm
Experimental: as §1, §3, §4
After completion of the experiment, the mice were sacrificed by anesthetizing with CO2, and then the degree of edema of both ears was measured by the velocity transformation technique using a thickness gauge (Digimatic thickness gauge, 547-301, Mitutoyo, Japan).

Molecule	resistance or sensitivity of the EB-FPDK11 strain to the antibiotic [1]	MIC breakpoint class [1]	MIC breakpoint class [2]	also measured
O=C(N[C@H](CO)[C@H](O)c1ccc([N+](=O)[O-])cc1)C(Cl)Cl [CHL, chloramphenicol]	sensitivity	(S)	(R)	–
CCC[C@@H]1C[C@@H](C(=O)N[C@@H]([C@H]2O[C@H](SC)[C@H](O)[C@@H](O)[C@H]2O)[C@H](C)Cl)N(C)C1 [CLI, clindamycin]	–	(S)	(S)	–
CO/N=C(\C(=O)N[C@@H]1C(=O)N2C(C(=O)O)=CCS[C@H]12)c1csc(N)n1 [CTZ, ceftizoxime]	resistance	(R)	(I)	–
C[C@@H](O)[C@H]1C(=O)N2C(C(=O)O)=C(S[C@@H]3CN[C@H](C(=O)N(C)C)C3)[C@H](C)[C@H]12 [MEM, meropenem]	resistance	(R)	(R)	MIC [3]: 0.5 µg/mL (≈ 1.3 µM)
Cc1ncc([N+](=O)[O-])n1CCO [MTZ, metronidazole]	sensitivity	(S)	(S)	–
COc1c(N2C[C@@H]3CCCN[C@@H]3C2)c(F)cc2c(=O)c(C(=O)O)cn(C3CC3)c12 [MXF, moxifloxacin]	–	(R)	(R)	–
C[C@@H]1C[C@H]2[C@@H]3CCC4=CC(=O)C=C[C@]4(C)[C@@]3(F)[C@@H](O)C[C@]2(C)[C@@]1(O)C(=O)CO [dexamethasone]	–	–	–	decrease in IL-4/IL-12 ratio (Th2/Th1 cytokines; compared to atopic dermatitis-induced group): 23.7%; decrease in ratio of IL-6/IL-12 (Th2/Th1 cytokines; compared to atopic dermatitis-induced group (DNCB)): 35.8%; decrease in frequency of scratching (NC/Nga mice [4]): about 59.4%; decrease in spleen weight (NC/Nga mice [5]): 23.26%; decrease in IL-6 concentration (IL-6): 35.5%; decrease in serum IgE concentration (IgE): 40.70%; ear edema (NC/Nga mice [6]): 1.00 mm
Piperacillin-tazobactam [PTZ]	resistance	(R)	(R)	MIC ([1]; test strain EB-FPDK11, broth microdilution): ≤256/4; MIC ([2]; test strain A2-165, broth microdilution): ≤256/4
